Measurements published in patent US20110224182A1, “SALTS OF (3-0-(3',3'-[…]) BETULINIC ACID AND SOLID STATE FORMS THEREOF” (Myriad Pharmaceuticals, Incorporated, priority 2007, published 2011).
In brackets after ≈: the same amount, converted by molar mass. Read-outs that look alike come from different tables or passages of the source.

Key:
[1] = In vivo pharmacokinetic studies (Method H), plasma levels by LC-MS/MS; design: species or system male Sprague-Dawley rats; conditions: rat; for Mean plasma concentration: as free drug
Description: Method H—In Vivo Pharmacokinetic Studies
In vivo experiments were conducted in male Sprague-Dawley rats having a body mass of 225 g to 275 g with an appropriate cannula surgically inserted. Rats were supplied food and water ad libitum until 12 hours before dosing when food was removed. Food was withheld until four hours post-dosing. Water was available ad libitum. Each of group of rats consisted of 3 rats.
Dosing solutions were prepared the same day as dose administration. […] The administered dose of each salt was 1 mg/kg for intravenous administration and 10 mg/kg for oral gavage. Formulations for intravenous administration were filtered after preparation. Concentrations of respective dosing solutions were as depicted in Table 1 below.
Sampling was performed at predose, 2, 5, 15, and 30 minutes, 1, 2, 4, and 8 hours post dose. Blood samples were collected, placed into chilled tubes containing sodium heparin, and kept chilled until centrifuged at 4° C. at 13,000 rpm for 5 minutes. Plasma was separated and stored at −60° C. to −80° C. until analyzed.
Plasma levels of the compounds were determined by LC-MS/MS. Quantification of the compounds in plasma was performed against a calibration curve generated by serial dilution of a test article DMSO stock solution into blank heparinized rat plasma (50, 100, 200, 500, 1,000, 2,000, 5,000, and 10,000 ng/mL final concentrations of free drug). Quality control samples were prepared in the same fashion (250, 1,000, and 5,000 ng/mL final concentrations of free drug). The standard curve and quality control DMSO stock solutions were derived from independent weightings.
Plasma concentrations versus time data are plotted in FIGS. 26 through 37.
All data are expressed as ng/mL of the free drug. Samples that were below the limit of quantification (“bloq”) were assigned a value of zero for the mean concentration calculations.

[2] = Solubility (Method B): solvent added in portions until a clear solution is obtained; assay type: physicochemical; conditions: ambient temperature
Description: Method B-Solubility Measurement of the water solubility of the salts of this invention is accomplished by using methods well known to those skilled in the art. Specifically, to a weighed amount of DSB (+)-[…], DSB choline […], DSB diethanolamine […], or DSB diethylamine […], a solvent is added in small portions until a clear solution is obtained. The total volume of the solution is measured. The solubility of the particular DSB salt, in mg/mL, is calculated by dividing the weight of the salt (in mg), by the volume of the solution (in mL).

[3] = oral gavage 10 mg/kg, 0.083 h post dose
[4] = oral gavage 10 mg/kg, 0.25 h post dose
[5] = oral gavage 10 mg/kg, 0.5 h post dose
[6] = oral gavage 10 mg/kg, 1 h post dose
[7] = oral gavage 10 mg/kg, 2 h post dose
[8] = oral gavage 10 mg/kg, 4 h post dose
[9] = oral gavage 10 mg/kg, 8 h post dose
[10] = oral gavage 10 mg/kg, relative to DSB-2 NMG intravenous

Row | Compound | Mean plasma concentration [1, 3] [ng/mL] | Mean plasma concentration [1, 4] [ng/mL] | Mean plasma concentration [1, 5] [ng/mL] | Mean plasma concentration [1, 6] [ng/mL] | Mean plasma concentration [1, 7] [ng/mL] | Mean plasma concentration [1, 8] [ng/mL] | Mean plasma concentration [1, 9] [ng/mL] | AUC24 h ([1]; oral gavage 10 mg/kg, mean) [ng·h/mL] | Cmax ([1]; oral gavage 10 mg/kg, mean) [ng/mL] | Tmax ([1]; oral gavage 10 mg/kg, mean) [min] | % Bioavailability [1, 10] [%] | other results
1 | 3-O-(3′,3′-dimethylsuccinyl)betulinic acid, bis-diethylamine salt [DSB-2 Diethylamine] | 352.7 | 4576.7 | 7420.0 | 6873.3 | 3750.0 | 1886.7 | 233.7 | 21172.3 | 7453.3 | 40.2 | 30.7 | 
2 | C=C(C)[C@@H]1CC[C@]2(C(=O)O)CC[C@]3(C)[C@H](CC[C@@H]4[C@@]5(C)CC[C@H](OC(=O)CC(C)(C)C(=O)O)C(C)(C)[C@@H]5CC[C@]43C)[C@@H]12 [DSB Free Acid, 3-O-(3′,3′-dimethylsuccinyl)betulinic acid] |  |  |  |  |  |  |  |  |  |  |  | solubility ([2]; 1-propanol, organic solvent or mixture, thermodynamic from solid, 1-propanol, read-out: Solubility in 1-propanol): 6000 µg/mL (≈ 10.3 mM); solubility ([2]; 2,2,2-trifluoroethanol, organic solvent or mixture, thermodynamic from solid, 2,2,2-trifluoroethanol, read-out: Solubility in 2,2,2-trifluoroethanol): 2500 µg/mL (≈ 4.27 mM); solubility ([2]; 2-propanol, organic solvent or mixture, thermodynamic from solid, 2-propanol, read-out: Solubility in 2-propanol): 6000 µg/mL (≈ 10.3 mM); solubility ([2]; ethanol, organic solvent or mixture, thermodynamic from solid, ethanol, read-out: Solubility in ethanol): 15000 µg/mL (≈ 25.6 mM); solubility ([2]; methanol, organic solvent or mixture, thermodynamic from solid, methanol, read-out: Solubility in methanol): 7500 µg/mL (≈ 12.8 mM); solubility ([2]; water, thermodynamic from solid, water, read-out: Solubility in water): 350 µg/mL (≈ 0.598 mM)
3 | C=C(C)[C@@H]1CC[C@]2(C(=O)O)CC[C@]3(C)[C@H](CC[C@@H]4[C@@]5(C)CC[C@H](OC(=O)CC(C)(C)C(=O)O)C(C)(C)[C@@H]5CC[C@]43C)[C@@H]12.OCCNCCO.OCCNCCO [DSB-2 Diethanolamine, diethanolamine disalt of DSB] | 880.7 | 5190.0 | 5743.3 | 5873.3 | 4730.0 | 1830.0 | 1149.3 | 30958.7 | 6720.0 | 72 | 44.9 | 
4 | C=C(C)[C@@H]1CC[C@]2(C(=O)O)CC[C@]3(C)[C@H](CC[C@@H]4[C@@]5(C)CC[C@H](OC(=O)CC(C)(C)C(=O)O)C(C)(C)[C@@H]5CC[C@]43C)[C@@H]12.CNC[C@H](O)[C@@H](O)[C@H](O)[C@H](O)CO.CNC[C@H](O)[C@@H](O)[C@H](O)[C@H](O)CO [DSB-2 NMG, reference compound] | 491.0 | 3706.7 | 3246.7 | 3236.7 | 1973.7 | 1662.3 | 635.7 | 18041.1 | 4480.0 | 96 | 26.2 | % Bioavailability ([1]; intravenous 1 mg/kg (reference)): 100.0%; AUC24 h ([1]; intravenous 1 mg/kg, mean): 6890.6 ng·h/mL; Cmax ([1]; intravenous 1 mg/kg, mean): 13785.9 ng/mL; Tmax ([1]; intravenous 1 mg/kg, mean): 0 min
5 | bis-(+)-arginine salt of DSB [DSB-2 (+)-Arginine] | 2003.3 | 6796.7 | 6140.0 | 5793.3 | 4590.0 | 1615.3 | 532.3 | 24342.9 | 7093.3 | 19.8 | 35.3 | 
6 | bis-choline salt of DSB [DSB-2 Choline] |  |  |  |  |  |  |  |  |  |  |  | % Bioavailability ([1]; in vivo, 10 mg/kg): 30.3%; AUC24 h ([1]; in vivo, po, 10 mg/kg): 20872.2 ng·h/mL
